Reference: patent US20240398701A1, “MANUFACTURING METHODS FOR GASTRIC RESIDENCE SYSTEMS” (Lyndra Therapeutics, Inc., priority 2023, published 2024)

Assay: Time-dependent behaviour in simulated gastric fluid over seven days
Assay type: physicochemical
From the text: In some embodiments, a gastric residence system may include one or more time-dependent disintegrating matrices instead of or in addition to one or more enteric disintegrating matrices. A time-dependent disintegrating matrix may include one or more time-dependent polymers or linkers, that is, polymers that degrade in a time-dependent manner in the gastric environment. […] Thus, a polymer that degrades in a time-dependent manner can be readily prepared by mixing Plastoid B and triacetin; the degradation time of the Plastoid B-triacetin mixture can be extended by increasing the amount of Plastoid B used in the mixture (that is, using less triacetin in the mixture), while the degradation time can be decreased by decreasing the amount of Plastoid B used in the mixture (that is, using more triacetin in the mixture).

SMILES: CC(=O)OCC(COC(C)=O)OC(C)=O [triacetin]
- release from a polymer formulation: releases from a polymer formulation in a time-dependent manner
